The record followed here is ChEMBL document CHEMBL1268825, “Inhibitory activity of four demethoxy fluorinated anthracycline analogs against five human-tumor cell lines” (2010).

Converted amounts (≈) assume the structure as drawn. The source made the active and inactive calls. The rule behind the calls is not given here.

Holding throughout (type): functional
Assay [1] in a line: (§1) Cytotoxicity against human RPMI cells after 24 hrs by SRB assay. The conditions noted are these: read-out: ED50 (the source's name). (In SRB staining, fixed cells bind dye roughly in proportion to their protein.)
For another assay, the system named is A549. The assay is described as follows: Cytotoxicity against human A549 cells after 24 hrs by SRB assay. The conditions noted are these: A549, 24 h, read-out: ED50 (the source's name).
The next assay has as its system HT-29. The assay is described as follows: Cytotoxicity against human HT-29 cells after 24 hrs by SRB assay. The conditions noted are these: HT-29, 24 h, read-out: ED50 (the source's name).
A further assay relates to U-251. The experiment in a line: Cytotoxicity against human U251 cells after 24 hrs by SRB assay. The settings on record: for EC50: U-251, 24 h, read-out: ED50 (the source's name).
The test system of a further assay is MCF7. The assay is described as follows: Cytotoxicity against human MCF7 cells after 24 hrs by SRB assay. The conditions noted are these: MCF7, 24 h, read-out: ED50 (the source's name).
A further assay relates to RPMI. Described as §1.

`C[C@@H]1O[C@@H](O[C@H]2C[C@](O)(C(=O)CO)Cc3c(O)c4c(c(O)c32)C(=O)c2ccccc2C4=O)[C@H](F)[C@H](O)[C@@H]1O`: the EC50 in assay [1] was 0.02 µg/mL (≈ 0.0376 µM); in the assay on A549, 0.008 µg/mL (≈ 0.015 µM); in the assay with HT-29, > 1 ng/mL; in the assay on U-251, 0.02 µg/mL (≈ 0.0376 µM); in the assay on MCF7, 0.02 µg/mL (≈ 0.0376 µM).

On to `COc1cccc2c1C(=O)c1c(O)c3c(c(O)c1C2=O)C[C@@](O)(C(=O)CO)C[C@@H]3O[C@H]1C[C@H](N)[C@H](O)[C@H](C)O1` [DOXORUBICIN], for which the EC50 is 0.02 µg/mL (≈ 0.0368 µM) in assay [1], 0.03 µg/mL (≈ 0.0552 µM) with A549, 0.02 µg/mL (≈ 0.0368 µM) in the assay with U-251 and 0.03 µg/mL (≈ 0.0552 µM) in the assay with MCF7.

As for `CC(=O)O[C@H]1[C@@H](F)[C@H](O[C@H]2C[C@](O)(C(C)=O)Cc3c(O)c4c(c(O)c32)C(=O)c2ccccc2C4=O)O[C@@H](C)[C@H]1OC(C)=O`, the EC50 in assay [1] stood at 0.05 µg/mL (≈ 0.0833 µM); in the assay with A549, 0.07 µg/mL (≈ 0.117 µM); in the assay on HT-29, 1 ng/mL (≈ 0.00167 µM); in the assay with U-251, 0.1 µg/mL (≈ 0.167 µM); with MCF7, 0.06 µg/mL (≈ 0.0999 µM).

As to `CC(=O)[C@]1(O)Cc2c(O)c3c(c(O)c2[C@@H](O[C@@H]2O[C@@H](C)[C@@H](O)[C@@H](O)[C@H]2F)C1)C(=O)c1ccccc1C3=O`, the EC50 worked out at 0.03 µg/mL (≈ 0.0581 µM) in assay [1], 0.008 µg/mL (≈ 0.0155 µM) with A549, 0.04 µg/mL (≈ 0.0774 µM) in the assay on U-251 and 0.03 µg/mL (≈ 0.0581 µM) with MCF7.

Consider `C[C@@H]1O[C@@H](O[C@H]2C[C@](O)(C(=O)CBr)Cc3c(O)c4c(c(O)c32)C(=O)c2ccccc2C4=O)[C@H](F)[C@H](O)[C@@H]1O`, for which the ED50 entry in the assay on RPMI and in the assay on U-251 was “inactive” in each case. Also, the EC50 with A549 was determined as 0.6 µg/mL (≈ 1.01 µM); with MCF7, 0.4 µg/mL (≈ 0.672 µM).
